From article PMC5948155 (ACS infectious diseases, 2018)
“Also recorded” adds a separate entry of the source. Where a name gives a salt, the structure may show the parent alone. Read-outs that look alike come from different tables or passages of the source.

How the values were obtained:
Type in all cases: cell-based
[1] = target: T1, cholera toxin subunit B (CTB) (Vibrio cholerae serotype O1, UniProt P01556); experiment: cell-based
[2] = target: T1, cholera toxin subunit B (CTB)
CTB = CTB (Vibrio cholerae serotype O1, UniProt P01556)
[3] = target: T2, Maackia amurensis lectin I (MAL I) (Maackia amurensis, UniProt P0DKL3)
T2 sequence (P0DKL3 30-287): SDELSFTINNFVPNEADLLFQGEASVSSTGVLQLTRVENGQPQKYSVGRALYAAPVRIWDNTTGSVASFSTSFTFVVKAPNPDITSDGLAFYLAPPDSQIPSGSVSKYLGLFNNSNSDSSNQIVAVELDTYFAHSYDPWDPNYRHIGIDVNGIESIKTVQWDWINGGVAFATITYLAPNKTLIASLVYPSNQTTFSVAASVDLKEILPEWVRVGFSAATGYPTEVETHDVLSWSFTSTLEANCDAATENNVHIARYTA

[4] = target: T3, Aleuria aurantia lectin (AAL) (Aleuria aurantia, UniProt P18891)
T3 sequence (P18891 1-313): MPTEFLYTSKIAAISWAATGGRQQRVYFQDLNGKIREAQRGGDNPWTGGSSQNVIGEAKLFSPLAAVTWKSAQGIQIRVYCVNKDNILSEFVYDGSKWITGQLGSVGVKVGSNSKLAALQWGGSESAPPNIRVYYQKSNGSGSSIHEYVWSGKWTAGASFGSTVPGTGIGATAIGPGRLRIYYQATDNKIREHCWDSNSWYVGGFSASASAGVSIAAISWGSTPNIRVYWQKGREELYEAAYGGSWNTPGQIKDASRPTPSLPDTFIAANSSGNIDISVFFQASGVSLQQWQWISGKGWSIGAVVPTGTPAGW

[5] = target: T3, Aleuria aurantia lectin (AAL); remark: listed apart in the source
[6] = target: T1, cholera toxin subunit B (CTB); remark: listed apart in the source
[7] = target: Sambucus nigra lectin (SNA) (Sambucus nigra, UniProt Q41358)
Sambucus nigra lectin (SNA), sequence (Q41358 309-570 limits assumed): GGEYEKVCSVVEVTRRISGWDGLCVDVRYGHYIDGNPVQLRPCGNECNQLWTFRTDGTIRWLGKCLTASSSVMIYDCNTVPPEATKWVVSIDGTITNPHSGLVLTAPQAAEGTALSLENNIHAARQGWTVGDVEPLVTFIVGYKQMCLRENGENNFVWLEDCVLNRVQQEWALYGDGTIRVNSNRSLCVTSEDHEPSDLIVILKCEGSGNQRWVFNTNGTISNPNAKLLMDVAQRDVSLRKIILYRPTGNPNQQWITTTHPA
Sambucus nigra lectin (SNA), sequence (Q41358 29-292 partner limits assumed): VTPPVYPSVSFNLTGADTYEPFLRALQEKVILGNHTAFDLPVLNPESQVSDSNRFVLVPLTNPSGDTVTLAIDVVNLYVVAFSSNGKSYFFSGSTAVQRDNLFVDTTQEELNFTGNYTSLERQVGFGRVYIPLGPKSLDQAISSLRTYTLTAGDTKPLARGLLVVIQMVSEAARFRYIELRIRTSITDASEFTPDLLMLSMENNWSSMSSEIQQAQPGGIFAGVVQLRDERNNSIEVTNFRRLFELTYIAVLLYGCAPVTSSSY

T1 sequence (P01556 22-124 limits assumed): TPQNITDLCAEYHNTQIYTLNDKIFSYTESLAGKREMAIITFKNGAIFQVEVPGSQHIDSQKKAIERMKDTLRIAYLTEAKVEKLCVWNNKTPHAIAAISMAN
CTB, sequence (P01556 22-124 limits assumed): as above

C[C@H](O)C[C@@H](O)[C@H](O)C=O [4-deoxy-fucose, 4-Deoxy-L-fucose]
Inhibition of CTB binding to Colo205 cells (in words) [1]: complete loss in inhibitory potential
Inhibition of CTB binding to T84 cells (in words) [2]: complete loss in inhibitory potential

O=C[C@@H](O)[C@H](O)[C@@H](O)[C@@H](O)CO [L-glucose]
Inhibition of CTB binding (in words) (CTB): loss of all inhibitory activity

CO[C@@H]1O[C@@H](C)[C@@H](O)[C@@H](O)[C@@H]1O [methyl α-L-fucose, Methyl a-L-fucopyranoside]
Inhibition of CTB binding to Colo205 cells (in words) [1]: inhibited CTB binding as efficiently as L-fucose
Inhibition of CTB binding to T84 cells (in words) [2]: suppression of CTB binding was observed

CC(=O)NC1C(O)CC(OC2C(O)C(OC3C(CO)OC(O)C(O)C3O)OC(CO)C2OC2OC(CO)C(O)C(OC3OC(CO)C(O)C(O)C3O)C2NC(C)=O)(C(=O)O)OC1C(O)C(O)CO (stereo not shown) [GM1a(os), GM1a ganglioside sugar]
CTB binding, % of the no sugar control [1]: ~ 5%
Fold more potent than LeY in inhibiting CTB binding [1]: approximately 2000 fold
IC50 ([1]; read-out: IC50 against CTB binding): 0.000109 ± 3.8e-05 mM
Inhibition of CTB binding to T84 cells, titration of inhibitor (in words) [2]: could not completely inhibit CTB binding

CC(=O)N[C@H]1[C@H]([C@H](O)[C@H](O)CO)O[C@@](O[C@H]2[C@@H](O)[C@@H](CO)O[C@@H](O[C@H]3[C@H](O)[C@@H](O)C(O)O[C@@H]3CO)[C@@H]2O)(C(=O)O)C[C@@H]1O (stereo partly shown) [3′-SL, 3′-Sialyllactose sodium salt]
Inhibition of MAL I binding (in words) [3]: enhance the inhibitory potential of lactose
Inhibition of CTB binding to Colo205 cells (in words) [1]: no inhibition
Inhibition of CTB binding to T84 cells (in words) [2]: no inhibition

CC(=O)N[C@H]1[C@H]([C@H](O)[C@H](O)CO)O[C@@](O[C@H]2[C@@H](O)[C@@H](CO)O[C@@H](O[C@@H]([C@H](O[C@@H]3O[C@@H](C)[C@@H](O)[C@@H](O)[C@@H]3O)[C@H](C=O)NC(C)=O)[C@H](O)CO)[C@@H]2O)(C(=O)O)C[C@@H]1O [sLeX, 3′-Sialyl Lewis X]
Inhibitory potential, fold less than that of LeY [1]: 2 fold
AAL lectin retained bound to the cell surface [4]: ~ 70%
Inhibition of CTB binding to T84 cells, titration of inhibitor (in words) [2]: near complete inhibition

CC(=O)N[C@H]1[C@H]([C@H](O)[C@H](O)CO)O[C@@](O[C@H]2[C@@H](O)[C@@H](CO)O[C@@H](O[C@H]3[C@H](O)[C@@H](NC(C)=O)C(O)O[C@@H]3CO)[C@@H]2O)(C(=O)O)C[C@@H]1O (stereo partly shown) [3′-SLN, 3′-Sialyl-N-acetyllactosamine]
Inhibition of CTB binding to Colo205 cells (in words) [1]: incapable of inhibiting

C[C@@H](O)[C@@H](O)[C@H](O)[C@@H](O)C=O [6-deoxy-D-glucose]
Inhibition of CTB binding to Colo205 cells (in words) [1]: only minor effects
Inhibition of AAL binding to Colo205 cells (in words) [4]: virtually no effect
Inhibition of AAL binding to T84 cells (in words) [5]: virtually no effect
Inhibition of CTB binding to T84 cells (in words) [2]: no effect

C[C@H]1OC(O)[C@H](O)[C@@H](O)[C@H]1O (stereo partly drawn) [D-fucose, d-(+)-Fucose]
Inhibition of CTB binding to Colo205 cells (in words) [1]: only minor effects
Inhibition of AAL binding to Colo205 cells (in words) [4]: virtually no effect
Inhibition of AAL binding to T84 cells (in words) [5]: virtually no effect
Inhibition of CTB binding to T84 cells (in words) [2]: only a modest effect

O=C[C@@H](O)[C@H](O)[C@H](O)[C@@H](O)CO [L-galactose, L-Galactose]
Inhibition of CTB binding to Colo205 cells (in words) [1]: modest loss in inhibition
Inhibition of AAL binding to Colo205 cells (in words) [4]: effective inhibitors
Inhibition of AAL binding to T84 cells (in words) [5]: effective inhibitors
Inhibition of CTB binding to T84 cells (in words) [2]: modest loss in inhibition

CC(=O)N[C@H]1C(O)O[C@H](CO)[C@@H](O[C@@H]2O[C@H](CO)[C@H](O)[C@H](O)[C@H]2O[C@@H]2O[C@@H](C)[C@@H](O)[C@@H](O)[C@@H]2O)[C@@H]1O[C@@H]1O[C@@H](C)[C@@H](O)[C@@H](O)[C@@H]1O (mixture of isomers) [LeY, Fucα2Galβ4[Fucα3]GlcNAc]
Inhibition of CTB binding to primary human jejunal epithelial cells (in words) [6]: effectively block
CTB binding, % of the no sugar control [1]: ~ 20%
Inhibition of CTB binding to Colo205 cells (in words) [1]: most potent blocker
AAL lectin retained bound to the cell surface [4]: ~ 15%
Inhibition of AAL binding to Colo205 cells (in words) [4]: more efficient; also recorded: capable of inhibiting
Inhibition of CTB binding to T84 cells, titration of inhibitor (in words) [2]: near complete inhibition

OC[C@H]1O[C@@H](O[C@H]2[C@H](O)[C@@H](O)[C@H](O)O[C@@H]2CO)[C@H](O)[C@@H](O)[C@H]1O [lactose, d-Lactose monohydrate]
inhibition at 100000 µM ([1]; COLO 205, read-out: Inhibition of CTB binding): ~50%
Inhibition of CTB binding to T84 cells (in words) [2]: did not inhibit

CC(=O)N[C@H]1[C@@H](O[C@H]2[C@@H](O)[C@@H](CO)O[C@@H](O[C@H]3[C@H](O[C@@H]4O[C@@H](C)[C@@H](O)[C@@H](O)[C@@H]4O)[C@@H](NC(C)=O)C(O)O[C@@H]3CO)[C@@H]2O[C@@H]2O[C@@H](C)[C@@H](O)[C@@H](O)[C@@H]2O)O[C@H](CO)[C@H](O)[C@@H]1O (stereo partly shown) [ALeY]
Inhibition of CTB binding to Colo205 cells (in words) [1]: failed to produce a further increase in potency; also recorded: less effectively than LeY

C[C@H](O)[C@@H](O)[C@@H](O)[C@H](O)C=O [L-fucose, l-(−)-Fucose]
CTB binding, % of the no sugar control [1]: ~ 20%
IC50 [1]: 14.5 mM
Inhibition of AAL binding to Colo205 cells (in words) [4]: effectively block
Inhibition of AAL binding to T84 cells (in words) [5]: effectively block
Inhibition of CTB binding to T84 cells (in words) [2]: dramatically suppress; also recorded: suppression of CTB binding was observed

C[C@H](O)[C@@H](O)[C@@H](O)[C@H](F)C=O [2-deoxy-2-fluoro-L-fucose, 2-Deoxy-2-fluoro-L-fucose]
Inhibition of CTB binding to Colo205 cells (in words) [1]: indistinguishable
Inhibition of CTB binding to T84 cells (in words) [2]: indistinguishable

COC1OC(C)C(O)C(O)C1O [methyl β-L-fucose, Methyl b-L-fucopyranoside]
Inhibition of CTB binding to Colo205 cells (in words) [1]: significantly less
Inhibition of CTB binding to T84 cells (in words) [2]: inhibitory activity was not observed

CC(=O)N[C@H]1[C@H]([C@H](O)[C@H](O)CO)O[C@@](OC[C@H]2O[C@@H](O[C@H]3[C@H](O)[C@@H](O)[C@H](O)O[C@@H]3CO)[C@H](O)[C@@H](O)[C@H]2O)(C(=O)O)C[C@@H]1O [6′-SL, 6′-Sialyllactose sodium salt]
Inhibition of CTB binding to Colo205 cells (in words) [1]: no inhibition
Inhibition of SNA binding (in words) [7]: enhance the inhibitory potential of lactose
Inhibition of CTB binding to T84 cells (in words) [2]: no inhibition

CC(=O)N[C@H]1C(O)O[C@H](CO)[C@@H](O[C@@H]2O[C@H](CO)[C@H](O)[C@H](O)[C@H]2O[C@@H]2O[C@@H](C)[C@@H](O)[C@@H](O)[C@@H]2O)[C@@H]1O (stereo partly shown) [H antigen, Blood group H antigen triaose type 2]
Reduction of CTB binding compared to the no sugar control [1]: at least 75%

CC1OC(OC2C(OC3C(CO)OC(O)C(O)C3O)OC(CO)C(O)C2O)C(O)C(O)C1O (stereo not shown) [2′-FL, 2′-Fucosyllactose]
IC50 [1]: 3 mM
Inhibition of CTB binding to Colo205 cells (in words) [1]: more potent inhibitor than L-fucose alone
Reduction of CTB binding compared to the no sugar control [1]: at least 75%
Reduction of IC50 relative to L-fucose [1]: ~ 5 fold
Inhibition of AAL binding to Colo205 cells (in words) [4]: inhibit binding
Inhibition of CTB binding to T84 cells (in words) [2]: more potent inhibitor

C[C@@H]1OC(O)[C@@H](O)C[C@@H]1O (stereo partly drawn) [L-colitose]
Inhibition of CTB binding to T84 cells (in words) [2]: significant loss in inhibitory potential

OC1OC[C@@H](O)[C@@H](O)[C@@H]1O (stereo partly drawn) [D-arabinose, d-(−)-Arabinose]
Inhibition of CTB binding to Colo205 cells (in words) [1]: indistinguishably from the no sugar control
Inhibition of AAL binding to Colo205 cells (in words) [4]: effective inhibitors
Inhibition of AAL binding to T84 cells (in words) [5]: effective inhibitors
Inhibition of CTB binding to T84 cells (in words) [2]: indistinguishably from the no sugar control

CC(=O)NC1C(O)OC(CO)C(OC2OC(CO)C(O)C(OC3OC(CO)C(O)C(O)C3O)C2OC2OC(C)C(O)C(O)C2O)C1OC1OC(C)C(O)C(O)C1O (stereo not shown) [BLeY]
Inhibition of CTB binding to Colo205 cells (in words) [1]: failed to produce a further increase in potency; also recorded: comparable blocking activity as LeY

CC(=O)N[C@H]1C(O)O[C@H](CO)[C@@H](O[C@@H]2O[C@H](CO)[C@H](O)[C@H](O)[C@H]2O)[C@@H]1O (stereo partly drawn) [LacNAc, N-Acetyl-D-lactosamine]
Inhibition of CTB binding to primary human jejunal epithelial cells (in words) [6]: no inhibition

C[C@@H]1O[C@@H](O[C@H]2[C@H](O[C@H]3[C@H](O[C@@H]4O[C@@H](C)[C@@H](O)[C@@H](O)[C@@H]4O)[C@@H](O)C(O)O[C@@H]3CO)O[C@H](CO)[C@H](O)[C@@H]2O)[C@@H](O)[C@H](O)[C@@H]1O (stereo partly shown) [DF-L, Difucosyllactose]
Reduction of CTB binding compared to the no sugar control [1]: at least 75%
Inhibition of AAL binding to Colo205 cells (in words) [4]: more efficient

Asialo-GM1-tetrasaccharide [GA1(os)]
Inhibition of CTB binding to Colo205 cells (in words) [1]: significantly attenuated
Inhibition of CTB binding to T84 cells, titration of inhibitor (in words) [2]: no inhibition
